This experiment concerns the target Human Factor D (Homo sapiens (Human), UniProt P00746). The experiment in a line: Human Factor D Assay. It is filed as biochemical. The method in brief: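 First, compound at various concentrations is mixed with 80 nM (final) human serum Factor D in 50 mM Tris, 1M NaCl, pH 7.5 for 5 min at room temperature.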
The mark [1] stands for this setting: Human Factor D 80 nM, substrate Z-L-Lys-SBzl, read-out: IC50.
[2] abbreviates: Human Factor D assay of Example 8, Table 2, read-out: IC50.
The mark [3] stands for this setting: Human Factor D, Table 3, read-out: IC50.
The mark [4] stands for this setting: Table 3, Human Factor D 80 nM, substrate Z-L-Lys-SBzl, read-out: IC50 (Stars).

Like-named read-outs stand apart in the source and are kept apart here. Some results are limits rather than exact numbers.

In general, IC50 refers to the point on the concentration scale where inhibition reaches its midpoint.

Human Factor D, sequence (P00746 26-253): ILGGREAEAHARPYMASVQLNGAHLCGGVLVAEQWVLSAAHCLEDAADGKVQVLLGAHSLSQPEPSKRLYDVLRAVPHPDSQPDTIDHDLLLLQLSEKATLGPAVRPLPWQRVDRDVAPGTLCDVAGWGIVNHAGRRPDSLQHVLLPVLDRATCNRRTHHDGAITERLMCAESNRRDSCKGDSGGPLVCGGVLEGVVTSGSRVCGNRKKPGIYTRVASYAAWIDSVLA

As for `CC(=O)c1cn(CC(=O)N2C[C@H](F)C[C@H]2C(=O)Nc2cccc(-c3ccccc3Cl)c2F)c2ccc(-c3cnc(C(F)(F)F)nc3)cc12` [Compound 191, (2S,4R)-1-(2-(3-acetyl-5-(2-(trifluoromethyl)pyrimidin-5-yl)-1H-indol-1-yl)acetyl)-N-(2′-chloro-2-fluorobiphenyl-3-yl)-4-fluoropyrrolidine-2-carboxamide], the IC50 under setting [1] is less than 1000 nM.

As for `CC(=O)c1cn(CC(=O)N2C[C@H](F)C[C@H]2C(=O)Nc2ccccc2-c2nncn2C)c2ccc(-c3ccnnc3)cc12` [Compound 181, (2S,4R)-1-(2-(3-acetyl-5-(pyridazin-4-yl)-1H-indol-1-yl)acetyl)-4-fluoro-N-(2-(4-methyl-4H-1,2,4-triazol-3-yl)phenyl) pyrrolidine-2-carboxamide], under setting [1], the IC50 was more than 10000 nM. On to `CC(=O)c1ccc(Cl)c(-c2cccc(NC(=O)[C@@H]3C[C@@H](F)CN3C(=O)Cn3nc(C(C)=O)c4cc(-c5cnc(C)nc5)ccc43)c2F)c1` [Compound 192, (2S,4R)-N-(5′-acetyl-2′-chloro-2-fluorobiphenyl-3-yl)-1-(2-(3-acetyl-5-(2-methylpyrimidin-5-yl)-1H-indazol-1-yl)acetyl)-4-fluoropyrrolidine-2-carboxamide], for which the IC50 under setting [2] is less than 1000 nM.

For the compound `CC(=O)c1nn(CC(=O)N2C[C@H](F)C[C@H]2C(=O)Nc2cccc(Br)n2)c2ccc(-c3cn[nH]c3)cc12` [Compound 707, (2S,4R)-1-(2-(3-acetyl-5-(1H-pyrazol-4-yl)-1H-indazol-1-yl)acetyl)-N-(6-bromopyridin-2-yl)-4-fluoropyrrolidine-2-carboxamide], the IC50 under setting [3] was less than 1000 nM. Consider `CC(=O)c1nn(CC(=O)N2C[C@H](F)C[C@H]2C(=O)Nc2cnc(C)c(Br)n2)c2ccc(-c3cnc4ccnn4c3)cc12` [Compound 665, (2S,4R)-1-(2-(3-Acetyl-5-(pyrazolo[1,5-a]pyrimidin-6-yl)-1H-indazol-1-yl)acetyl)-N-(6-bromo-5-methylpyrazin-2-yl)-4-fluoropyrrolidine-2-carboxamide], for which the IC50 under setting [3] was less than 1000 nM. In the case of `NC(=O)c1nn(CC(=O)N2C[C@H](F)C[C@H]2C(=O)Nc2cncc(Cl)n2)c2ccc(-c3ccnnc3)cc12` [Compound 89, 1-(2-((2S,4R)-2-(6-chloropyrazin-2-ylcarbamoyl)-4-fluoropyrrolidin-1-yl)-2-oxoethyl)-5-(pyridazin-4-yl)-1H-indazole-3-carboxamide], under setting [1], the IC50 is less than 1000 nM.

As for `CC(=O)c1nn(CC(=O)N2C[C@H](F)C[C@H]2C(=O)Nc2cncc(Br)n2)c2ccc(-c3cnc4ccnn4c3)cc12` [Compound 322, (2S,4R)-1-(2-(3-acetyl-5-(pyrazolo[1,5-a]pyrimidin-6-yl)-1H-indazol-1-yl)acetyl)-N-(6-bromopyrazin-2-yl)-4-fluoropyrrolidine-2-carboxamide], the 50% inhibitory concentration (IC50) under setting [2] was less than 1000 nM. As to `CC(=O)c1nn(CC(=O)N2C[C@H](F)C[C@H]2C(=O)Nc2cncc(Br)n2)c2ccc(-c3cnc(C(C)C)nc3)cc12` [Compound 389, (2S,4R)-1-(2-(3-Acetyl-5-(2-isopropylpyrimidin-5-yl)-1H-indazol-1-yl)acetyl)-N-(6-bromopyrazin-2-yl)-4-fluoropyrrolidine-2-carboxamide], under setting [4], the IC50 is less than 1000 nM. For `CC(=O)c1nn(CC(=O)N2C[C@H](F)C[C@H]2C(=O)Nc2cccc(Br)n2)c2ccc(-c3cnc4ccnn4c3)cc12` [Compound 234, (2S,4R)-1-(2-(3-acetyl-5-(pyrazolo[1,5-a]pyrimidin-6-yl)-1H-indazol-1-yl)acetyl)-N-(6-bromopyridin-2-yl)-4-fluoropyrrolidine-2-carboxamide], under setting [2], the 50% inhibitory concentration (IC50) was less than 1000 nM. `CC(=O)c1nn(CC(=O)N2C[C@H](F)C[C@H]2C(=O)Nc2cccc(C(F)(F)F)n2)c2ccc(-c3cnc(C)nc3)cc12` [Compound 562, (2S,4R)-1-(2-(3-Acetyl-5-(2-methylpyrimidin-5-yl)-1H-indazol-1-yl)acetyl)-4-fluoro-N-(6-(trifluoromethyl)pyridin-2-yl)pyrrolidine-2-carboxamide]: the IC50 under setting [3] was less than 1000 nM. Turning to `Cc1cccc(NC(=O)[C@@H]2[C@H]3CC[C@H](C3)N2C(=O)Cn2cc(C(N)=O)c3cc(-c4ccc(F)nc4)ccc32)n1` [Compound 500, 5-(6-Fluoropyridin-3-yl)-1-(2-((1R,3S,4S)-3-(6-methylpyridin-2-ylcarbamoyl)-2-azabicyclo[2.2.1]heptan-2-yl)-2-oxoethyl)-1H-indole-3-carboxamide], the IC50 was more than 10000 nM. Take `CC(=O)c1nn(CC(=O)N2C[C@H](F)C[C@H]2C(=O)Nc2cc(Br)n(C)n2)c2ccc(-c3cnc(C)nc3)cc12` [Compound 381, (2S,4R)-1-(2-(3-Acetyl-5-(2-methylpyrimidin-5-yl)-1H-indazol-1-yl)acetyl)-N-(5-bromo-1-methyl-1H-pyrazol-3-yl)-4-fluoropyrrolidine-2-carboxamide]: under setting [4], the IC50 was less than 1000 nM. On the same count and under the same terms, the figure for `CC(=O)c1nn(CC(=O)N2C[C@H](F)C[C@H]2C(=O)Nc2ccc(F)c(Br)c2)c2ccc(-c3cnc(C)nc3)cc12` [Compound 509, (2S,4R)-1-(2-(3-Acetyl-5-(2-methylpyrimidin-5-yl)-1H-indazol-1-yl)acetyl)-N-(3-bromo-4-fluorophenyl)-4-fluoropyrrolidine-2-carboxamide] is less than 1000 nM. `CC(=O)c1nn(CC(=O)N2C[C@H](F)C[C@H]2C(=O)Nc2cncc(Br)n2)c2ccc(-c3cnc(C)nc3)cc12` [Compound 317, (2S,4R)-1-(2-(3-acetyl-5-(2-methylpyrimidin-5-yl)-1H-indazol-1-yl)acetyl)-N-(6-bromopyrazin-2-yl)-4-fluoropyrrolidine-2-carboxamide]: the 50% inhibitory concentration (IC50) under setting [2] is less than 1000 nM. As to `CC(=O)c1cn(CC(=O)N2C[C@H](F)C[C@H]2C(=O)Nc2cccc(-c3ccccc3Cl)c2F)c2ccc(-c3cnc(O)nc3)cc12` [Compound 186, (2S,4R)-1-(2-(3-acetyl-5-(2-hydroxypyrimidin-5-yl)-1H-indol-1-yl)acetyl)-N-(2′-chloro-2-fluorobiphenyl-3-yl)-4-fluoropyrrolidine-2-carboxamide], under setting [1], the IC50 is less than 1000 nM. Consider `CC(=O)c1nn(CC(=O)N2C[C@H](F)C[C@H]2C(=O)Nc2cccc(Br)n2)c2ccc(-c3cnc(-n4cccn4)nc3)cc12` [Compound 522, (2S,4R)-1-(2-(5-(2-(1H-Pyrazol-1-yl)pyrimidin-5-yl)-3-acetyl-1H-indazol-1-yl)acetyl)-N-(6-bromopyridin-2-yl)-4-fluoropyrrolidine-2-carboxamide], for which the IC50 under setting [4] was less than 1000 nM. As to `CC(=O)c1cn(CC(=O)N2C[C@H](F)C[C@H]2C(=O)Nc2cccc(-c3ccccc3Cl)c2F)c2ccc(-c3ccnnc3)cc12` [Compound 20, (2S,4R)-1-(2-(3-Acetyl-5-(pryridazin-4-yl)-1H-indol-1-yl)acetyl)-N-(2′-chloro-2-fluoro-[1,1′-biphenyl]-3-yl)-4-fluoropyrrolidine-2-carboxamide], the IC50 under setting [1] is less than 1000 nM.

Regarding `COCc1ccc(Br)nc1NC(=O)[C@@H]1C[C@@H](F)CN1C(=O)Cn1nc(C(C)=O)c2cc(-c3cnc(C)nc3)ccc21` [Compound 606, (2S,4R)-1-(2-(3-Acetyl-5-(2-methylpyrimidin-5-yl)-1H-indazol-1-yl)acetyl)-N-(6-bromo-3-(methoxymethyl)pyridin-2-yl)-4-fluoropyrrolidine-2-carboxamide], the half-inhibitory concentration (IC50) under setting [3] is less than 1000 nM. Consider `CC(=O)c1nn(CC(=O)N2C[C@H](F)C[C@H]2C(=O)Nc2cccc(Br)n2)c2ccc(-c3ccc4nccn4n3)cc12` [Compound 303, (2S,4R)-1-(2-(3-acetyl-5-(imidazo[1,2-b]pyridazin-6-yl)-1H-indazol-1-yl)acetyl)-N-(6-bromopyridin-2-yl)-4-fluoropyrrolidine-2-carboxamide], for which the IC50 under setting [2] was less than 1000 nM. Regarding `CC(=O)c1nn(CC(=O)N2C[C@](C)(F)C[C@H]2C(=O)Nc2cccc(Br)n2)c2ccc(-c3cnc(C)nc3)cc12` [Compound 418, (2S,4R)-1-(2-(3-Acetyl-5-(2-methylpyrimidin-5-yl)-1H-indazol-1-yl)acetyl)-N-(6-bromopyridin-2-yl)-4-fluoro-4-methylpyrrolidine-2-carboxamide], the IC50 under setting [4] was less than 1000 nM.

`CC(=O)c1cn(CC(=O)N2C[C@H](F)C[C@H]2C(=O)Nc2nccc(Cl)n2)c2ccc(-c3ccnnc3)cc12` [Compound 180, (2S,4R)-1-(2-(3-acetyl-5-(pyridazin-4-yl)-1H-indol-1-yl)acetyl)-N-(4-chloropyrimidin-2-yl)-4-fluoropyrrolidine-2-carboxamide]: the IC50 under setting [1] is more than 10000 nM.

For the compound `CC(=O)c1nn(CC(=O)N2C[C@H](F)C[C@H]2C(=O)Nc2ncn(CC(F)(F)F)n2)c2ccc(-c3cnc(C)nc3)cc12` [Compound 378, (2S,4R)-1-(2-(3-Acetyl-5-(2-methylpyrimidin-5-yl)-1H-indazol-1-yl)acetyl)-4-fluoro-N-(1-(2,2,2-trifluoroethyl)-1H-1,2,4-triazol-3-yl)pyrrolidine-2-carboxamide], the 50% inhibitory concentration (IC50) under setting [4] is less than 1000 nM.

For the compound `CC(=O)c1cn(CC(=O)N2C[C@H](F)C[C@H]2C(=O)Nc2nc(-c3ccccc3Cl)ns2)c2ccc(-c3ccnnc3)cc12` [Compound 99, (2S,4R)-1-(2-(3-acetyl-5-(pyridazin-4-yl)-1H-indol-1-yl)acetyl)-N-(3-(2-chlorophenyl)-1,2,4-thiadiazol-5-yl)-4-fluoropyrrolidine-2-carboxamide], the half-inhibitory concentration (IC50) under setting [1] is less than 1000 nM. The same measure, in the same setting: the result for `CC(=O)c1cn(CC(=O)N2C[C@H](F)C[C@H]2C(=O)Nc2cccc(-c3ccccc3Cl)c2F)c2ccc(-c3cnc(N4CCCC4)nc3)cc12` [Compound 26, (2S,4R)-1-(2-(3-acetyl-5-(2-(pyrrolidin-1-yl)pyrimidin-5-yl)-1H-indol-1-yl)acetyl)-N-(2′-chloro-2-fluorobiphenyl-3-yl)-4-fluoropyrrolidine-2-carboxamide] reads less than 1000 nM.

(Values after patent publication US10287301B2 (Achillion Pharmaceuticals, Inc., priority 2015, dated 2019).)
